The source of these data is article PMC10791743, “Selective CK1α degraders exert antiproliferative activity against a broad range of human cancer cell lines” (Nature Communications, 2024).

Assay in all cases: cells
Holding throughout (set-up): Oncolines panel cell viability, ATPlite 1Step luminescence, duplicate 9-point dose response, IC50
For orientation: Cellular ATP, detected with luciferase, serves as a proxy for viable cell number.

One test deals with A-427. The settings on record: Homo sapiens, A-427; 72 h viability; read-out: SJ3149. As for the experimental part: (§1) Cell viability assays were performed as previously described. In brief, cells were seeded in a 384-well plate at an optimized density. The starting cell number was determined after 24 h incubation by adding ATPlite 1Step (Perkin Elmer, Groningen, the Netherlands) to each well and recording luminescence on an Envision multimode reader (Perkin Elmer, Waltham, MA). After the addition of a duplicate 9-point dilution series of SJ3149, cells were incubated for another 72 h, followed by cell counting using ATPlite 1Step. The dilution series ranged from 3.2 to 31,600 nM or was diluted 100-fold for the most sensitive cell lines to ideally capture the complete dose–response curve. Percentage viability was determined at each compound concentration by relating the observed signal to a vehicle-treated control, that is, medium containing 0.4% (v/v) DMSO. Compound IC50 values were calculated by fitting a 4-parameter logistic curve to the percentage viability values using IDBS XLfit5 (IDBS, Guildford, UK). The IC50 was limited to the maximum tested compound concentration when the IC50 exceeded the maximum tested concentration. […] To evaluate the compound’s effect and potential therapeutic application across a diverse range of human cancers, we profiled SJ3149 in Oncolines® panel consisting of 115 human cancer cell lines, of which 86 were solid tumor and 29 hematologic cell lines, including MOLM-13. Effect on cell viability was monitored using ATPLite™ (Perkin Elmer), which measures intracellular ATP content as an indirect readout of cell number, like CellTiter Glo.

The test system of a further test is AP-1060. Particulars: 72 h viability; read-out: SJ3149. The method, then:
as §1

A further test relates to COLO 205. Particulars: Homo sapiens, COLO 205; 72 h viability; read-out: SJ3149. As for the experimental part: as §1
For the next test, the system named is DB. Particulars: Homo sapiens, DB; 72 h viability; read-out: SJ3149. The method, then: as §1
For a further test, the system named is DLD-1. The settings on record: Homo sapiens, DLD-1; 72 h viability; read-out: SJ3149. The method, then:
as §1

A further test relates to HCT 116. The settings on record: Homo sapiens, HCT-116; 72 h viability; read-out: SJ3149. The method, then:
as §1

A further test relates to Hs 578T. Particulars: Homo sapiens, Hs-578T; 72 h viability; read-out: SJ3149. As for the experimental part: as §1
In another test the test system is K-562. Particulars: Homo sapiens, K562; 72 h viability; read-out: SJ3149. As for the experimental part: as §1
Another test deals with NB4. Particulars: Homo sapiens, NB-4; 72 h viability; read-out: SJ3149. As for the experimental part:
as §1

A further test concerns NCI-H661. Particulars: Homo sapiens, NCI-H661; 72 h viability; read-out: SJ3149. The method, then: as §1
In the next test the test system is OVCAR-3. The settings on record: Homo sapiens, OVCAR-3; 72 h viability; read-out: SJ3149. The method, then:
as §1

Another test relates to PC-3. Particulars: Homo sapiens, PC-3; 72 h viability; read-out: SJ3149. As for the experimental part:
as §1

The subject of the next test is PF-382. The settings on record: Homo sapiens, PF-382; 72 h viability; read-out: SJ3149. As for the experimental part:
as §1

In another test the test system is PL-21. Particulars: PL-21; 72 h viability; read-out: SJ3149. The method, then:
as §1

The subject of a further test is SK-N-AS. The settings on record: Homo sapiens, SK-N-AS; 72 h viability; read-out: SJ3149. The method, then: as §1
The subject of a further test is SNU-C2B. Particulars: Homo sapiens, SNU-C2B; 72 h viability; read-out: SJ3149. As for the experimental part: as §1
A further test relates to SW480. The settings on record: Homo sapiens, SW480; 72 h viability; read-out: SJ3149. The method, then: as §1
The test system of the next test is SW872. The settings on record: Homo sapiens, SW872; 72 h viability; read-out: SJ3149. The method, then:
as §1

A further test relates to U-118 MG. The settings on record: Homo sapiens, U-118-MG; 72 h viability; read-out: SJ3149. The method, then:
as §1

A further test concerns U-2 OS. The settings on record: Homo sapiens, U2OS; 72 h viability; read-out: SJ3149. As for the experimental part: as §1

For `O=C1CCC(N2Cc3cc(Nc4noc5ccccc45)ccc3C2=O)C(=O)N1` (centres unmarked) [SJ3149], the IC50 in the test on A-427 was > 31.6 µM; in the test on AP-1060, 0.00135 µM; in the test on COLO 205, > 31.6 µM; in the test on DB, > 31.6 µM; in the test on DLD-1 it was > 31.6 µM; in the test with HCT 116 it was > 31.6 µM. Moreover, the IC50 in the test on Hs 578T, in the test with K-562, with NB4, in the test on NCI-H661, in the test with OVCAR-3 and in the test with PC-3 was > 31.6 µM each time. In addition, the IC50 with PF-382, with PL-21, in the test with SK-N-AS, with SNU-C2B, in the test with SW480 and with SW872 was > 31.6 µM in each case. In addition, the IC50 in the test with U-118 MG and in the test on U-2 OS was > 31.6 µM in each case.
